Assay results from PMC10713630, “Elucidation of the structural basis for ligand binding and translocation in conserved insect odorant receptor co-receptors” (Nature Communications, 2023).
Several values for one entry are separate records, joined by “and”; a condition that tells them apart may be missing. Equal values may be shown once.

How the values were obtained:
Format in all cases: cell-based
DmelOrco Y390A = DmelOrco Y390A (Drosophila melanogaster, UniProt Q9VNB5, Y390A); experiment: TEVC recording of VUAA1-induced current, DmelOrco Y390A in Xenopus oocytes; conditions: 500 µM VUAA1, TEVC
Chain of DmelOrco Y390A (Q9VNB5 whole entry Y390A, the tested form may be a part): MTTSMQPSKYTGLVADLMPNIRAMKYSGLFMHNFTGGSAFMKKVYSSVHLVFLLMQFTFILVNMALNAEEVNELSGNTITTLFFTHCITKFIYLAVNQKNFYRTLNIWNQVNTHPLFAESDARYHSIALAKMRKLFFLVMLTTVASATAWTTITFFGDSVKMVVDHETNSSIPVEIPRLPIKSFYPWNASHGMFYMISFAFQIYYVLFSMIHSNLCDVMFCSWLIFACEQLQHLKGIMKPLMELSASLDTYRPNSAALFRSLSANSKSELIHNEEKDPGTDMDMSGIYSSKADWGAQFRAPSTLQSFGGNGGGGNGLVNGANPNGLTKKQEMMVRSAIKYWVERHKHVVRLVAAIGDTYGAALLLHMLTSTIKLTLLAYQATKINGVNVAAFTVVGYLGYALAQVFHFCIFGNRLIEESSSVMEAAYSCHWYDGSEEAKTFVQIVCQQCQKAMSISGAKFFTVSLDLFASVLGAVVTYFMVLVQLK
Source text: (§1) All Orco gene sequences were optimized[63] for protein expression in Xenopus laevis oocytes with the GenSmartTM Codon optimization Tool and subcloned into a pGEMHE-derived vector. The wildtype gene of Drosophila melanogaster Orco (DmelOrco) was synthesized by Genscript and subcloned with XmaI/XhoI cloning sites. Site-directed mutagenesis of DmelOrco was done by PCR with the Q5® site directed mutagenesis kit (NEB) using primers optimized with the NEBase Changer online tool and following the supplier’s protocol. After transformation of commercial competent bacteria (XL10 Gold) by standard heat-shock protocol and overnight culture in ampicillin-containing LB plates, positive clones were identified by electrophoretic restriction profile and external sequencing (Genewiz). DNAs of positive clones were amplified with Qiagen MidiPrep Kit and the ORF was fully sequenced. For in vitro transcription, DNAs were linearized with restriction enzyme NotI that cuts a unique site in the 3′ region of the polyA tail. […] DNA and RNA were analyzed by agarose-gel electrophoresis and quantified by spectrophotometry. […]
(§2) Whole cell currents were recorded with the two-electrode voltage-clamp (TEVC) technique with the HiClamp robot (MultiChannel System). […] Data were extracted with M. Vivaudou’s programs[65] and statistically analyzed with Prism 8 (Graphpad).

DmelOrco Y390S = DmelOrco Y390S (Drosophila melanogaster, UniProt Q9VNB5, Y390S); experiment: TEVC recording of VUAA1-induced current, DmelOrco Y390S in Xenopus oocytes; conditions: 500 µM VUAA1, TEVC
Chain of DmelOrco Y390S (Q9VNB5 whole entry Y390S, the tested form may be a part): as the sequence (Q9VNB5 whole entry Y390A, the tested form may be a part) above, with A390S counted along it
Source text: as §1, §2

DmelOrco Y390F = DmelOrco Y390F (Drosophila melanogaster, UniProt Q9VNB5, Y390F); experiment: TEVC recording of VUAA1-induced current, DmelOrco Y390F in Xenopus oocytes; conditions: 500 µM VUAA1, TEVC
Chain of DmelOrco Y390F (Q9VNB5 whole entry Y390F, the tested form may be a part): as the sequence (Q9VNB5 whole entry Y390A, the tested form may be a part) above, with A390F counted along it
Source text: as §1, §2

DmelOrco I79W = DmelOrco I79W (Drosophila melanogaster, UniProt Q9VNB5, I79W); experiment: TEVC recording of VUAA1-induced current, DmelOrco I79W in Xenopus oocytes; design: VUAA1-induced current, i79W: unit not given here; conditions: for VUAA1-induced current, i79W: individual oocytes
Chain of DmelOrco I79W (Q9VNB5 whole entry I79W, the tested form may be a part): as the sequence (Q9VNB5 whole entry Y390A, the tested form may be a part) above, with I79W, A390Y counted along it
Source text: (§3) All Orco gene sequences were optimized[63] for protein expression in Xenopus laevis oocytes with the GenSmartTM Codon optimization Tool and subcloned into a pGEMHE-derived vector. The wildtype gene of Drosophila melanogaster Orco (DmelOrco) was synthesized by Genscript and subcloned with XmaI/XhoI cloning sites. Site-directed mutagenesis of DmelOrco was done by PCR with the Q5® site directed mutagenesis kit (NEB) using primers optimized with the NEBase Changer online tool and following the supplier’s protocol. After transformation of commercial competent bacteria (XL10 Gold) by standard heat-shock protocol and overnight culture in ampicillin-containing LB plates, positive clones were identified by electrophoretic restriction profile and external sequencing (Genewiz). DNAs of positive clones were amplified with Qiagen MidiPrep Kit and the ORF was fully sequenced. For in vitro transcription, DNAs were linearized with restriction enzyme NotI that cuts a unique site in the 3′ region of the polyA tail. The linearized DNAs were purified by the standard phenol:chloroform extraction method and transcribed into mRNA using the T7 ultra mMessage mMachine kit (Thermo Fisher Scientific). mRNAs were purified with the NucleoSpin RNA plus XS kit (Machery-Nagel). DNA and RNA were analyzed by agarose-gel electrophoresis and quantified by spectrophotometry.
(§4) Xenopus laevis oocytes were prepared, as previously described. Briefly, oocytes were defolliculated after surgical retrieval by type 1 A collagenase over 2-3 h under smooth horizontal agitation. They were manually selected and incubated at 19 °C in modified-Barth’s solution (1 mM KCl, 0.82 mM MgSO4, 88 mM NaCl, 2.4 mM NaHCO3, 0.41 mM CaCl2, Ca(NO3)2 0.3 mM, 16 mM HEPES, pH 7.4) supplemented with 100 U mL^−1 of penicillin and streptomycin and 0.1 mg mL^−1 of gentamycin. Each oocyte was micro-injected with the Nanoject instrument (Drummond) with 50 nL of 20 ng of mRNA coding for the Orco of interest. Injected oocytes were incubated individually in 96-well plates for 4 days at 19 °C in the same buffer. Different batches of oocytes have been tested per construct. The results of the mutants of interest have been confirmed by a second set of experiments comparing the amplitudes with WT in the same day and from the same batch of oocytes (Supplementary Fig. 11).
(§5) Whole cell currents were recorded with the two-electrode voltage-clamp (TEVC) technique with the HiClamp robot (MultiChannel System). Microelectrodes were filled with 3 M KCl. The high K^+ buffer used for recordings was composed of 91 mM KCl, 1 mM MgCl2, 1.8 mM CaCl2, 5 mM HEPES, pH 7.4. Membrane voltage was clamped to −50 mV and VUAA1 was applied for 60 s. Data were extracted with M. Vivaudou’s programs[65] and statistically analyzed with Prism 8 (Graphpad).

DmelOrco T80A = DmelOrco T80A (Drosophila melanogaster, UniProt Q9VNB5, T80A); experiment: TEVC recording of VUAA1-induced current, DmelOrco T80A in Xenopus oocytes; design: VUAA1-induced current, T80A: unit not given here
Chain of DmelOrco T80A (Q9VNB5 whole entry T80A, the tested form may be a part): as the sequence (Q9VNB5 whole entry Y390A, the tested form may be a part) above, with T80A, A390Y counted along it
Source text: as §1, §2

DmelOrco I181S = DmelOrco I181S (Drosophila melanogaster, UniProt Q9VNB5, I181S); experiment: TEVC recording of VUAA1-induced current, DmelOrco I181S in Xenopus oocytes; design: VUAA1-induced current, i181S / VUAA1-induced current, I181S: unit not given here; conditions: for VUAA1-induced current, I181S: Fig.4i dose-response
Chain of DmelOrco I181S (Q9VNB5 whole entry I181S, the tested form may be a part): as the sequence (Q9VNB5 whole entry Y390A, the tested form may be a part) above, with I181S, A390Y counted along it
Source text: as §3, §4, §5

CCc1ccc(NC(=O)CSc2nnc(-c3cccnc3)n2CC)cc1 [VUAA1, N-(4-ethylphenyl)−2-((4-ethyl-5-(3-pyridinyl)−4H-1,2,4-triazol-3-yl)thio)acetamide]
Response to VUAA1 compared with WT (DmelOrco Y390A): did not show significant change | Current induced by VUAA1 (median) (DmelOrco Y390S): 2.44 µA | Response to VUAA1 compared with WT (DmelOrco Y390F): did not show significant change | Response to VUAA1 compared with WT (DmelOrco I79W; 500 µM VUAA1, TEVC, I79W): significantly reduced or abolished the activation | VUAA1-induced current, i79W (DmelOrco I79W; Fig.4b): 0.5 and 0.66 and 0.09 and 0.23 and 0.24 and 0.02 and 0.06 and 0.14 and 0.05 | VUAA1-induced current, i79W (DmelOrco I79W; Fig.4i dose-response, VUAA1 10 µM (Log(M) -5)): 0.07 (2×) and 0.12 and 0.2 and 0.01 (3×) and 0.02 and 0.41 and 0.18 | VUAA1-induced current, i79W (DmelOrco I79W; Fig.4i dose-response, VUAA1 25 µM (Log(M) -4.6)): 0.12 and 0.11 and 0.22 and 0.36 and 0.01 (3×) and 0.03 and 0.6 and 0.26 | VUAA1-induced current, i79W (DmelOrco I79W; Fig.4i dose-response, VUAA1 50 µM (Log(M) -4.3)): 0.18 and 0.17 and 0.32 and 0.56 and 0.02 (2×) and 0.03 and 0.05 and 0.68 and 0.28 | VUAA1-induced current, i79W (DmelOrco I79W; Fig.4i dose-response, VUAA1 100 µM (Log(M) -4)): 0.23 and 0.22 and 0.41 and 0.7 and 0.02 (2×) and 0.06 and 0.09 and 0.71 and 0.29 | VUAA1-induced current, i79W (DmelOrco I79W; Fig.4i dose-response, VUAA1 500 µM (Log(M) -3.3)): 0.29 and 0.28 and 0.52 and 0.84 and 0.02 and 0.07 and 0.12 and 0.82 and 0.03 and 0.25 | VUAA1-induced current, i79W (DmelOrco I79W; Fig.4i dose-response, VUAA1 1000 µM (Log(M) -3)): 0.38 and 0.36 and 0.67 and 1.01 and 0.03 and 0.09 and 0.14 and 0.96 and 0.04 and 0.24 | Imax (DmelOrco I79W; concentration-effect curve of VUAA1, TEVC, I79W): 0.65 µA | Response to VUAA1 compared with WT (DmelOrco T80A; 500 µM VUAA1, TEVC, T80A): did not significantly affect the amplitude of activation | VUAA1-induced current, T80A (DmelOrco T80A; Fig.4b, individual oocytes): 2.4 and 1.22 and 3.78 and 5.59 and 4.73 and 0.91 and 2.46 and 0.65 and 0.56 and 4.38 and 3.16 and 5.8 | EC50 (DmelOrco I181S): 102 µM | Current induced by VUAA1 (median) (DmelOrco I181S; 500 µM VUAA1, TEVC, I181S): 1.40 µA | Response to VUAA1 compared with WT (DmelOrco I181S; 500 µM VUAA1, TEVC, I181S): clear loss of VUAA1 activation | VUAA1-induced current, i181S (DmelOrco I181S; Fig.4b, individual oocytes): 1.9 and 2 and 1.3 and 0.38 and 0.78 and 1.7 and 1.5 and 2.2 and 2.1 and 1.2 and 1.4 and 0.46 and 1.1 and 1.8 and 2.3 | VUAA1-induced current, I181S (DmelOrco I181S; VUAA1 10 µM (Log(M) -5), individual oocytes): 0.26 and 0.25 and 0.11 | VUAA1-induced current, I181S (DmelOrco I181S; VUAA1 25 µM (Log(M) -4.6), individual oocytes): 0.22 (2×) and 0.2 and 0.06 and 0.1 and 0.03 and 0.21 and 0.09 | VUAA1-induced current, I181S (DmelOrco I181S; VUAA1 50 µM (Log(M) -4.3), individual oocytes): 0.39 and 0.35 and 0.1 and 0.28 and 0.07 and 0.3 and 0.34 and 0.19 | VUAA1-induced current, I181S (DmelOrco I181S; VUAA1 100 µM (Log(M) -4), individual oocytes): 1.03 and 0.88 and 0.21 and 0.74 and 0.26 and 0.4 and 0.43 and 0.32 | VUAA1-induced current, I181S (DmelOrco I181S; VUAA1 500 µM (Log(M) -3.3), individual oocytes): 1.45 and 1.2 and 0.29 and 2.29 and 0.87 and 0.44 and 0.47 and 0.39 | VUAA1-induced current, I181S (DmelOrco I181S; VUAA1 1000 µM (Log(M) -3), individual oocytes): 1.69 and 1.33 and 0.34 and 1.97 and 0.83 and 0.44 and 0.5 and 0.43
